Measurements from publication PMC7439407 (Science Advances, 2020).

Target: arginine repressor ArgR
Experiment: SPR
Type: binding, Staphylococcus aureus

## O=c1oc2ccccc2c(O)c1C(c1ccc(Cl)c(Cl)c1)c1c(O)c2ccccc2oc1=O [DCH, 3,3′-(3,4-dichlorobenzylidene)-bis-(4-hydroxycoumarin)]
  Kd: 82 nM
